This assay addresses Histone deacetylase. Kind of assay: Inhibition of HDAC in human HeLa cells using Ac-Arg-Gly-Lys(Ac)-AMC as fluorescent substrate after 20 mins by fluorescence assay. Type of assay: cell-based.
Usually IC50 stands for the point on the concentration scale where inhibition reaches its midpoint. Compound `O=C(/C=C/c1cn(C(/C=C/c2ccccc2)C2CCC2)nn1)NO` (stereo not drawn) yielded an IC50 of 54 nM.
`O=C(/C=C/c1cn(C(/C=C/c2ccccc2)C2CCCC2)nn1)NO` (stereo not drawn) returned an IC50 of 115 nM.
As to `CCCCC(/C=C/c1ccccc1)n1cc(/C=C/C(=O)NO)nn1` (stereo not drawn), the IC50 is 137 nM.
With `O=C(/C=C/c1cn(C(/C=C/c2ccccc2)Cc2cccc(Oc3ccccc3)c2)nn1)NO` (stereo not drawn) the figure was 510 nM; with `O=C(/C=C/c1cn(C(/C=C/c2ccccc2)Cc2cccc(-c3ccccc3)c2)nn1)NO` (stereo not drawn), 403 nM.
For the compound `O=C(/C=C/c1cn(C(/C=C/c2ccccc2)Cc2cccc3ccccc23)nn1)NO` (stereo not drawn), the IC50 is reported as 111 nM.
On to `O=C(/C=C/c1cn(C(/C=C/c2ccccc2)Cc2ccc3ccccc3c2)nn1)NO` (stereo not drawn), for which the IC50 was 94 nM.
The figure for `CC(C)CC(/C=C/c1ccccc1)n1cc(/C=C/C(=O)NO)nn1` (stereo not drawn) is 838 nM.
With `CCC(/C=C/c1ccccc1)n1cc(/C=C/C(=O)NO)nn1` (stereo not drawn) the figure was 55 nM.
`O=C(/C=C/c1cn(C(/C=C/c2ccccc2)Cc2nccs2)nn1)NO` (stereo not drawn) had a half-inhibitory concentration (IC50) of 171 nM.
The figure for `C=CCC(/C=C/c1ccccc1)n1cc(/C=C/C(=O)NO)nn1` (stereo not drawn) is 90 nM; for `CCCC(/C=C/c1ccccc1)n1cc(/C=C/C(=O)NO)nn1` (stereo not drawn) it is 132 nM.
`CC(C)(C)C(/C=C/c1ccccc1)n1cc(/C=C/C(=O)NO)nn1` (stereo not drawn) returned an IC50 of 18 nM.

(Values after ChEMBL document CHEMBL1806473, “Structure-based optimization of click-based histone deacetylase inhibitors” (Eur J Med Chem, 2011).)
